Laboratory results published in publication PMC11926788, “Effect of SSR504734, a Selective Glycine Transporter Type 1 Inhibitor, on Seizure Thresholds, Neurotransmitter Levels, and Inflammatory Markers in Mice” (ACS Chemical Neuroscience, 2025).
Structures can show the parent of a compound that is named as a salt. Where two headings read alike, the source gives them in different places.

Assay: Pharmacokinetic study of SSR504734 in mice (serum and tissue concentrations by LC-MS/MS, noncompartmental analysis)
Assay type: in vivo
Method: SSR504734 was administered i.p. at the dose of 30 mg/kg, and mice were sacrificed by decapitation at 5, 15, 30, 60, 120, 240, and 480 min after dosing. The trunk blood samples (∼1 mL) were collected in polypropylene tubes and allowed to clot at room temperature. Subsequently, the blood was centrifuged at 5600 rpm for 10 min. Serum samples were collected in new tubes. Immediately after decapitation, brains and other tissues such as the liver, lungs, kidneys, heart, spleen, gut, and adipose were removed from the skull and washed with cold 0.9% NaCl. Samples were kept at −80 °C until the day of analysis.
Serum and tissue concentrations of SSR504734 in mice were quantified by a liquid chromatography tandem mass spectrometry (LC-MS/MS) method. Stock solutions of the studied compound were prepared in methanol at a concentration of 1 mg/mL. Working solutions were prepared by dilution of the standard solutions in acetonitrile/water 1:1 (v/v). Tissue homogenates were obtained by homogenization of each tissue in distilled water at a ratio of 1:4 (w/v) using a basic T10 ULTRA-TURRAX tissue homogenizer (IKA, Poland). Mouse serum and tissues, which were used to prepare standard samples and quality control (QC) samples, were harvested from untreated healthy animals after exsanguination. Standard and QC samples were prepared by adding 5 μL of working solutions of SSR504734 to 45 μL of mouse serum or 45 μL of tissue homogenates. Real serum and homogenate samples, QC samples, and standard samples were subjected to the same precipitation procedure. Briefly, 150 μL of 0.1% formic acid solution in acetonitrile containing pentoxifylline (PTX) as an internal standard (IS) at a concentration of 5 ng/mL was added to 50 μL of analyzed serum, homogenate, standard samples, or QC samples in Eppendorf tubes and mixed on a vortex mixer for 10 min (IKA Vibrax VXR, Germany). Subsequently, samples were centrifuged at 10,000 rpm for 10 min at room temperature (Eppendorf miniSpin centrifuge). 2 μL of supernatant was subjected to LC-MS/MS analysis using an Exion LC AC HPLC system coupled to a SCIEX QTRAP 4500 triple-quadrupole mass spectrometer (Danaher Corporation, Framingham, MA, US). Chromatographic separation was performed using a Hypersil Gold C18 analytical column (2.1 × 50 mm, 3 μm) (Thermo Scientific, USA) at 25 °C. The mobile phase consisting of water containing 0.1% formic acid and acetonitrile containing 0.1% formic acid (60:40, v/v) was pumped at a flow rate of 0.5 mL/min in an isocratic elution mode. All detections were performed in positive ion mode. The selected reaction monitoring (SRM) for the transitions was m/z 397.2 → 207.0 and m/z 397.2 → 174.2 (quantifier and qualifier) for SSR504734 and m/z 279 → 181 for IS. The optimal MS parameters for SSR504734 multiple reaction monitoring (MRM) transitions selected by continuous infusion of the standard solution at the rate of 7 μL/min using a Harvard infusion pump were as follows: the declustering potential was 120 V, the collision energy was 35.6 V, the entrance potential was 10 V, and the cell exit potential was 6 V. These parameters for IS were 60, 24, 10, and 6 V, respectively. An additional tuning optimization of gas flows and temperatures was performed by flow injection analysis. The ion source temperature was maintained at 450 °C, the ion spray voltage at 4000 V, the curtain gas (CUR) was set at 25 psi, the nebulizer (GS1) and TIS (GS2) gases at 40.0 and 50.0 psi, respectively, and the collision gas (CAD) at Medium.
Data acquisition and processing were carried out using Analyst 1.7 software. The calibration curves were constructed by plotting the ratio of the peak area of the analyte to the peak area of the IS vs the concentration of the analyte and generated by weighted (1/y) nonlinear regression analysis by fitting a quadratic formula. […]

[1] = mouse, ip, adipose, single 30 mg/kg i.p.
[2] = mouse, ip, brain, single 30 mg/kg i.p.
[3] = mouse, ip, gut, single 30 mg/kg i.p.
[4] = mouse, ip, heart, single 30 mg/kg i.p.
[5] = mouse, ip, kidneys, single 30 mg/kg i.p.
[6] = mouse, ip, liver, single 30 mg/kg i.p.
[7] = mouse, ip, lungs, single 30 mg/kg i.p.
[8] = mouse, ip, serum, single 30 mg/kg i.p.
[9] = mouse, ip, spleen, single 30 mg/kg i.p.

O=C(NC(c1ccccc1)C1CCCCN1)c1cccc(C(F)(F)F)c1Cl [SSR504734, 2-chloro-N-[(S)-phenyl[(2S)-piperidin-2-yl]methyl]-3-trifluoromethyl benzamide monohydrochloride]
AUClast (adipose, single 30 mg/kg i.p.): 3347.89 µg·min/mL (g tissue) | AUClast (brain, single 30 mg/kg i.p.): 1137.50 µg·min/mL (g tissue) | Kp (tissue-to-serum partition coefficient, AUClast(tissue)/AUClast(serum)) (brain, single 30 mg/kg i.p., 30 mg/kg): 3.05 | AUClast (gut, single 30 mg/kg i.p.): 10606.43 µg·min/mL (g tissue) | AUClast (heart, single 30 mg/kg i.p.): 4841.83 µg·min/mL (g tissue) | AUClast (kidneys, single 30 mg/kg i.p.): 16781.00 µg·min/mL (g tissue) | AUClast (liver, single 30 mg/kg i.p.): 8821.36 µg·min/mL (g tissue) | AUClast (lungs, single 30 mg/kg i.p.): 33485.57 µg·min/mL (g tissue) | Kp (mouse, adipose (relative to serum), ip, 30 mg/kg, adipose, single 30 mg/kg i.p., read-out: Kp (tissue-to-serum partition coefficient)): 8.98 | Kp (mouse, brain (relative to serum), ip, 30 mg/kg, brain, single 30 mg/kg i.p., read-out: Kp (tissue-to-serum partition coefficient, AUClast(tissue)/AUClast(serum))): > 3 | Kp (mouse, gut (relative to serum), ip, 30 mg/kg, gut, single 30 mg/kg i.p., read-out: Kp (tissue-to-serum partition coefficient)): 28.5 | Kp (mouse, heart (relative to serum), ip, 30 mg/kg, heart, single 30 mg/kg i.p., read-out: Kp (tissue-to-serum partition coefficient)): 13 | Cmax (mouse, ip, 30 mg/kg i.p., assuming brain tissue density of ∼1 g/mL, read-out: Cmax in the brain tissue): 5150 ng/mL | MRT [1]: 1.37 h | Tmax [1]: 0.0833 h | half-life [1]: 1.33 h | Cmax (mouse, ip, adipose, single 30 mg/kg i.p., read-out: Cmax): 65700 ng/g | MRT [2]: 2.36 h | Tmax [2]: 0.5 h | half-life [2]: 1.75 h | Cmax (mouse, ip, brain, single 30 mg/kg i.p., read-out: Cmax): 5150 ng/g | CL/F (mouse, ip, from serum vs time profile, 30 mg/kg i.p., read-out: apparent clearance (CL/F)): 77.8 mL/min/kg | Vd/F (mouse, ip, from serum vs time profile, 30 mg/kg i.p., read-out: volume of distribution during the terminal phase (Vz/F)): 11.1 L/kg | MRT [3]: 1.96 h | Tmax [3]: 0.0833 h | half-life [3]: 1.73 h | Cmax (mouse, ip, gut, single 30 mg/kg i.p., read-out: Cmax): 77900 ng/g | MRT [4]: 1.68 h | Tmax [4]: 0.25 h | half-life [4]: 1.31 h | Cmax (mouse, ip, heart, single 30 mg/kg i.p., read-out: Cmax): 38300 ng/g | MRT [5]: 2.03 h | Tmax [5]: 0.5 h | half-life [5]: 1.4 h | Cmax (mouse, ip, kidneys, single 30 mg/kg i.p., read-out: Cmax): 93500 ng/g | MRT [6]: 1.76 h | Tmax [6]: 0.0833 h | half-life [6]: 1.52 h | Cmax (mouse, ip, liver, single 30 mg/kg i.p., read-out: Cmax): 101000 ng/g | MRT [7]: 2.6 h | Tmax [7]: 0.25 h | half-life [7]: 2.04 h | Cmax (mouse, ip, lungs, single 30 mg/kg i.p., read-out: Cmax): 147000 ng/g | MRT [8]: 1.86 h | Tmax [8]: 0.25 h | half-life [8]: 1.65 h | Cmax (mouse, ip, serum, single 30 mg/kg i.p., read-out: Cmax): 3000 ng/mL | MRT [9]: 1.66 h | Tmax [9]: 0.25 h | half-life [9]: 1.6 h | Cmax (mouse, ip, spleen, single 30 mg/kg i.p., read-out: Cmax): 193000 ng/g | Kp (mouse, kidneys (relative to serum), ip, 30 mg/kg, kidneys, single 30 mg/kg i.p., read-out: Kp (tissue-to-serum partition coefficient)): 45 | Kp (mouse, liver (relative to serum), ip, 30 mg/kg, liver, single 30 mg/kg i.p., read-out: Kp (tissue-to-serum partition coefficient)): 23.7 | Kp (mouse, lungs (relative to serum), ip, 30 mg/kg, lungs, single 30 mg/kg i.p., read-out: Kp (tissue-to-serum partition coefficient)): 89.8 | Kp (mouse, spleen (relative to serum), ip, 30 mg/kg, spleen, single 30 mg/kg i.p., read-out: Kp (tissue-to-serum partition coefficient)): 50 | AUClast (serum, single 30 mg/kg i.p.): 372.73 µg·min/mL (g tissue) | AUClast (spleen, single 30 mg/kg i.p.): 18616.26 µg·min/mL (g tissue)
